Test results taken from patent US7503967B2, “Azo compound, ink composition and colored article” (Nippon Kayaku Kabushiki Kaisha, priority 2004, dated 2009).

Assay: solubility in water of the azo compound
Type: physicochemical
Conditions: mixed salt of lithium and sodium

| solubility [mg/mL] | SMILES |
| --- | --- |
| ≥ 100 | Nc1c(N=Nc2ccc3c(O)c(N=Nc4ccc(N=Nc5ccc(S(=O)(=O)O)cc5)cc4S(=O)(=O)O)c(S(=O)(=O)O)cc3c2S(=O)(=O)O)cc(S(=O)(=O)O)c2cc(S(=O)(=O)O)c(N=Nc3ccc([N+](=O)[O-])cc3S(=O)(=O)O)c(O)c12 [compound 1] |
| ≥ 100 | Nc1c(N=Nc2ccc3c(O)c(N=Nc4ccc(N=Nc5ccc(S(=O)(=O)O)cc5)cc4S(=O)(=O)O)c(S(=O)(=O)O)cc3c2S(=O)(=O)O)cc(S(=O)(=O)O)c2cc(S(=O)(=O)O)c(N=Nc3ccc(S(=O)(=O)O)cc3[N+](=O)[O-])c(O)c12 [compound 3] |
| ≥ 100 | Cc1cc(N=Nc2c(S(=O)(=O)O)cc3c(S(=O)(=O)O)c(N=Nc4cc(S(=O)(=O)O)c5cc(S(=O)(=O)O)c(N=Nc6ccc([N+](=O)[O-])cc6S(=O)(=O)O)c(O)c5c4N)ccc3c2O)c(OCCCS(=O)(=O)O)cc1N=Nc1ccc(S(=O)(=O)O)cc1C(=O)O [compound 21] |

| SMILES | solubility [mg/mL] |
| --- | --- |
| Cc1cc(N=Nc2c(S(=O)(=O)O)cc3c(S(=O)(=O)O)c(N=Nc4cc(S(=O)(=O)O)c5cc(S(=O)(=O)O)c(N=Nc6ccc([N+](=O)[O-])cc6S(=O)(=O)O)c(O)c5c4N)ccc3c2O)c(OCCCS(=O)(=O)O)cc1N=Nc1ccc([N+](=O)[O-])cc1S(=O)(=O)O [compound 16] | ≥ 100 |
